Data: patent US20260001915A1, “METHODS FOR TREATING OBESITY WITH AN MC4R AGONIST” (RHYTHM PHARMACEUTICALS, INC., priority 2022, published 2026)

Key:
[1] = Phase 2 hypothalamic obesity study: safety and tolerability (TEAEs, SAEs); assay type: in vivo, human
Description: (§1) The secondary endpoints included determination of: • Composite proportion of patients aged ≥6 to <18 years with ≥0.2 reduction of BMI Z-score and patients aged ≥18 years with 5% reduction of body weight from baseline after 16 weeks of setmelanotide • Proportion of patients aged ≥6 to <18 years with ≥0.2 reduction of BMI Z-score from baseline after 16 weeks of setmelanotide • Proportion of patients aged 18 years with 5% reduction of body weight from baseline after 16 weeks of setmelanotide • Change from baseline in waist circumference in patients aged 18 years after 16 weeks of setmelanotide treatment. • Change in hunger in response to 16 weeks of setmelanotide treatment as measured by change from baseline in daily and global hunger scores. • Safety and tolerability assessed by the frequency and severity of AEs, vital signs, and laboratory evaluations. • Change from baseline in metabolic parameters following treatment with setmelanotide, including fasting glucose, HbA1c, lipid profiles (total-, high-density lipoprotein [HDL]-, and low-density lipoprotein [LDL]-cholesterol, triglycerides). • Proportion of patients, regardless of age, with ≥5% body weight loss from baseline after 16 weeks of setmelanotide treatment compared to a historic control of <5% in this patient population. • Change from baseline in BMI, weight, and waist circumference, regardless of age, after 16 weeks of setmelanotide treatment. • Change from baseline in BMI Z-score in patients aged 6 to 12 years and in those aged 6 to <18 years.
All screening evaluations were completed and reviewed to confirm that potential patients meet all eligibility criteria. Exemplary evaluations included a medical history review, physical examination, comprehensive skin examination, measurement of height, weight, waist circumference, body composition assessment, pregnancy test (if applicable), daily hunger questionnaires, global hunger assessment, and evaluation of PHQ-A or PHQ-9, C—SSRS, SF-12 or SF-10, IWQOL, FSH, HbA1c, and fasting lipid panel. Adjustments were made depending upon specific circumstances and in consultation with the investigator. Immediate safety concerns were discussed immediately upon occurrence or awareness to determine if the patient should continue or discontinue study treatment.
The most commonly reported TEAE was nausea (63.6%).

[2] = patients with POMC and LEPR deficiency obesity; cited from earlier work
[3] = Phase 2 hypothalamic obesity study: daily hunger questionnaire (most hungry last 24 hrs), weekly average of daily most hunger score; assay type: in vivo, human; conditions: patients ≥12 years of age
Description: as §1
All screening evaluations were completed and reviewed to confirm that potential patients meet all eligibility criteria. […]
The daily hunger questionnaire as assessed in patients ≥12 years of age also achieved a clinically meaningful diminution quantifying the most hungry the patient has experienced over the last 24 hours, with a mean reduction in the hunger score of −2.66 after 16 weeks. […]

[4] = Phase 2 open-label study of setmelanotide SC daily in patients with hypothalamic obesity: BMI, BMI Z-score, body weight after 16 weeks; assay type: in vivo, human; conditions: for Weight (kg), Week 16 Actual, Mean (SD): 16 weeks of treatment
Experimental: This example describes a phase 2 study that seeks to evaluate the change in body weight in response to an exemplary MC4R agonist, e.g., setmelanotide (i.e., SEQ ID NO: 140) administered subcutaneously (SC) daily in patients with hypothalamic obesity (HO).
Setmelanotide, 10 mg/mL in a sterile solution for injection, was provided at 1.0, 2.0, 3.0 mg QD for patients 6 to <16 years of age, and 2.0 to 3.0 mg QD for patients ≥16 years of age.
The primary endpoint of this study was to identify a proportion of patients with ≥5% reduction from baseline in BMI after 16 weeks of setmelanotide treatment compared to a historic control of <5% in this patient population.
as §1
This study describes a Phase 2, multicenter, open-label, proof of concept study designed to assess the effect of setmelanotide on weight loss within a population affected by HO. Approximately 15 patients aged 6 to 40 years, inclusive, were enrolled across approximately 3-5 clinical sites in the United States (US).
Patients who were determined to be eligible, based on Screening assessments, returned to the clinic for the Baseline Visit (Visit 2) and received the first setmelanotide dose. The starting setmelanotide dose was dependent on patient age; however, for all patients, the setmelanotide dose was titrated to a final dose of 3.0 mg/day (initial titration phase), as follows
• Starting at Baseline (Day 1; Visit 2) through approximately Day 14, patients received setmelanotide 1.0 mg/day. • Starting at approximately Day 15 through 28, patients received setmelanotide 2.0 mg/day.
• Starting at Baseline (Day 1; Visit 2) through approximately Day 14, patients received setmelanotide 2.0 mg/day. • Starting at approximately Day 15, patients received setmelanotide 3.0 mg/day; patients continue to receive setmelanotide 3.0 mg/day for 14 weeks.
Patients returned to the study center for Visits 3, 4, and 5 (Weeks 4, 8, and 12, respectively), with each of these visits conducted approximately 4 weeks apart. All patients returned to the study center at Week 16 (Visit 6) and received the last setmelanotide injection. Study endpoints were analyzed at Visit 6.
All patients received open-label setmelanotide in this study. Setmelanotide was provided as a preserved, multidose solution for injection to be administered SC, QD. It was formulated as a 10 mg/mL sterile, preserved, clear to slightly opalescent, colorless to slightly colored solution, practically free of visible particles. […]

[5] = clinical trials; cited from earlier work
[6] = Long-term extension study of setmelanotide, hypothalamic obesity subpopulation; assay type: in vivo, human
Experimental: This example describes a long-term extension study of the use of setmelanotide in treating hypothalamic obesity, and further to investigate the safety and tolerability of chronic setmelanotide administration for up to 5 years from initiation of treatment.
Setmelanotide, 10 mg/mL in a sterile solution, QD. Dosing was continued at the dosage of the cessation of the previous setmelanotide trial, (e.g., 3.0 mg QD for most patients enrolled in the setmelanotide trial for treating subjects with hypothalamic obesity), unless a change is determined necessary by the Investigator, e.g., for safety, tolerability, TEAE, SAE, or other concern.
The objective of this study was to examine the long-term safety parameters of chronic, daily subcutaneous setmelanotide injections for a period of up to 5 years. In order to assess this primary endpoint, the occurrence of TEAEs and SAEs were tracked, in addition to other clinical data including any new emergence of injection site reactions, changes in resting heart rate or blood pressure, laboratory workup (e.g., fasting glucose, HbA1c, lipid profiles (total-, high-density lipoprotein [HDL]-, and low-density lipoprotein [LDL]-cholesterol, triglycerides), liver enzymes, changes in physical examination (e.g., weight, BMI, BMI Z-Score), and cardiac changes (e.g., as measured by an electrocardiogram (ECG). […]

Compound: CC(=O)N[C@@H](CCCNC(=N)N)C(=O)N[C@H]1CSSC[C@@H](C(N)=O)NC(=O)[C@H](Cc2c[nH]c3ccccc23)NC(=O)[C@H](CCCNC(=N)N)NC(=O)[C@@H](Cc2ccccc2)NC(=O)[C@H](Cc2cnc[nH]2)NC(=O)[C@@H](C)NC1=O [setmelanotide, Ac-Arg-c(Cys-D-Ala-His-D-Phe-Arg-Trp-Cys)-NH2]
- Safety and tolerability of setmelanotide treatment ([1]; 16 weeks, up to 3.0 mg/day SC): consistent with established data
- Incidence of nausea (most commonly reported TEAE) ([1]; eleven patients): 63.6%
- Skin hyperpigmentation, e.g., melanocytic naevus, patients reporting ([1]; eleven patients): two of the eleven patients
- Patients with at least one treatment emergent adverse event (TEAE) ([1]; eleven patients, related or unrelated to administration): All eleven of the patients
- SAE related to Clostridium dificile colitis ([1]; one patient, able to complete the study): classified as severe, but not related to setmelanotide therapy
- Reduction in hunger [2]: statistically significant and clinically meaningful reduction in hunger
- Weight loss [2]: rapid and sustained significant and clinically meaningful weight loss
- Weekly average of daily most hunger score, Week 16 Actual, Median ([3]; N 7): 5.67
- Weekly average of daily most hunger score, Week 16 Change from Baseline, Median ([3]; N 7): −1.71
- Weekly average of daily most hunger score (Most Hungry Last 24 hrs), Week 16 Actual, Mean (SD) ([3]; N 7 at Week 16): 4.55 (2.84)
- Weight (kg), Week 16 Actual, Median ([4]; 6-<18 years (N = 9)): 93.07 kg
- Weight (kg), Week 16 Change from Baseline, Mean (SD) ([4]; 6-<18 years (N = 9)): -17.83 kg
- Weight (kg), Week 16 Change from Baseline, Median ([4]; 6-<18 years (N = 9)): -16.77 kg
- Weight, Week 16 Percent Change from Baseline, Mean (SD) ([4]; 6-<18 years (N = 9)): −17.80%
- Weight, Week 16 Percent Change from Baseline, Median ([4]; 6-<18 years (N = 9)): −14.12%
- Weight (kg), Week 16 Actual, Mean (SD) ([4]; 6-<18 years (N = 9)): 89.98 kg
- Mean BMI reduction ([4]; 9 completers at 16 weeks): −19.5%
- Mean change in BMI Z score ([4]; FAS set, after 16 weeks): −1.1 point
- Weight (kg), Week 16 Actual, Median ([4]; Total (N = 11)): 94.27 kg
- Weight (kg), Week 16 Change from Baseline, Mean (SD) ([4]; Total (N = 11)): -15.87 kg
- Weight (kg), Week 16 Change from Baseline, Median ([4]; Total (N = 11)): -13.90 kg
- Weight, Week 16 Percent Change from Baseline, Mean (SD) ([4]; Total (N = 11)): −15.79%
- Weight, Week 16 Percent Change from Baseline, Median ([4]; Total (N = 11)): −13.68%
- Weight (kg), Week 16 Actual, Mean (SD) ([4]; Total (N = 11)): 91.22 kg
- Mean percent change in body weight ([4]; after 16 weeks of setmelanotide, SD 7.9%): −17.8%
- Reduction in BMI Z score ([4]; all patients less than 18 years old, 16 weeks): statistically significant reduction in BMI Z score
- Proportion of patients achieving at least a 10% reduction in BMI ([4]; completers (n=9), 16 weeks, p<0.0001): 100%
- Proportion of patients achieving greater than or equal to 5% reduction in BMI (primary endpoint) ([4]; full analysis set (n=11), 16 weeks, p<0.0001): 100%
- Reduction in weight ([4]; pediatric and adult patients, 16 weeks of daily SC therapy): statistically significant and clinically meaningful reduction in weight
- Weight (kg), Week 16 Actual, Median ([4]; ≥18 years (N = 2)): 96.78 kg
- Weight (kg), Week 16 Change from Baseline, Mean (SD) ([4]; ≥18 years (N = 2)): -7.02 kg
- Weight (kg), Week 16 Change from Baseline, Median ([4]; ≥18 years (N = 2)): -7.02 kg
- Weight, Week 16 Percent Change from Baseline, Mean (SD) ([4]; ≥18 years (N = 2)): −6.76%
- Weight, Week 16 Percent Change from Baseline, Median ([4]; ≥18 years (N = 2)): −6.76%
- Weight (kg), Week 16 Actual, Mean (SD) ([4]; ≥18 years (N = 2)): 96.78 kg
- Effect on blood pressure [5]: has not been shown to adversely affect blood pressure
- BMI in long-term extension ([6]; 5 patients from the Phase 2 study, additional 3-8 months): all of the patients but one continued to further see reductions in BMI
- BMI of the fifth patient (increase in BMI in the extension period) ([6]; relative to BMI at initiation of the Phase 2 study): did not return to his or her original BMI
